# Measured values published in patent US4269848A, “5-Substituted indan-2-carboxylic acid and functional derivatives” (Lipha, Lyonnaise Industrielle Pharmaceutique, priority 1976, dated 1981).
# Counter-ions that a name gives are not always drawn.
# Legend:
# [1] = tested on: spasms of pain caused by the intraperitoneal injection of a solution of acetic acid; test: Analgesic activity, acetic acid induced spasms of pain (Koster et al.); assay type: in vivo; details: mouse, oral; dose reducing spasms of pain by 50%; read-out: AD50, Acetic Acid
# Experimental: B--Analgesic activity in the mouse was determined by the method of Koster et al. (Fed. Proc. 1959, Vol. 18, page 412). The active dose 50 (AD50) value for various compounds in accordance with the present invention was determined, namely, that dose which, when administered orally, reduces by 50% the spasms of pain caused by the intraperitoneal injection of a solution of acetic acid.
# platelets = test: In vitro inhibition of platelet aggregation induced by collagen (Born); assay type: cell-based; details: read-out: minimal active concentration, Platelet Aggregation Induced By Collagen
# Experimental: E--The anti-inflammatory activity was also determined by the aggregation-inhibiting effect of the compounds in accordance with the present invention, in vitro, on platelets the aggregation of which was induced by collagen, in accordance with the method of Born (Journal of Physiology, 1962, Vol. 162, page 67). It is known that compounds which inhibit the activity or quantity of prostaglandin synthetase will inhibit the formation of prostaglandin PGE2 and the inflammatory and pyretic effect thereof. Since prostaglandin PGE2 also causes an increase in platelet aggregation, this test is an effective indication of anti-inflammatory and anti-pyretic activity due to inhibition of prostaglandin synthetase.
# [2] = Acute toxicity, LD 50 (oral route), mice; details: mouse, in vivo
# Excerpt: A--The substances are of low toxicity. For example, the LD 50 value (oral route), determined in mice, of various compounds in accordance with the present invention are shown in column A of Table I.
# [3] = tested on: carrageenin-induced edema; test: Anti-inflammatory activity, carrageenin-induced edema test (Winter et al.); assay type: in vivo; details: rat, oral; dose inhibiting edema by 30%; read-out: AD30, Carrageenin
# Excerpt: The protection afforded, by oral administration of the compound to a rat against edema induced by injecting a suspension of carrageenin under the arch of the foot of the animal was investigated. The AD30 dose is that which inhibits the edema by 30%.
# [4] = tested on: erythema produced by ultra violet radiation; test: Protective effect against erythema from ultra violet radiation (Winder et al.); assay type: in vivo, albino guinea pigs; details: Cavia porcellus; albino guinea pig, oral; amount reducing erythema by 50%; read-out: AD50, U.V.
# Experimental: D--The protective effect against inflammation resulting from exposure to radiation was determined in albino guinea pigs using the method of Winder et al (Arch. Inv. Pharmacodyn. 1958, Vol. 116, page 261). The AD50 value was determined for the test substance, namely the amount which, when administered to the animal orally, reduced by 50% the erythema produced by exposing the shaved dorsal skin of the guinea pig to ultra violet radiation.
# [5] = Experiment A: clinical case studies, anti-inflammatory activity, oral administration; assay type: in vivo
# Experimental: The following clinical experimentation was carried out to clinically test various compounds in accordance with the present invention for their anti-inflammatory, analgesic and platelet aggregation or clumping inhibition activites. […] Diagonsis: Seropositive, classic, rheumatoid polyarthritis, radioclinical stage IV Treatment: 600 mg/day for 3 weeks Diagnosis: Ankylosing spondylarthrittis with signs of peripheral joint inflammation Treatment: 600 mg/day for 3 weeks Diagnosis: Psoriatic peripheral rheumatism Treatment: 600 mg/day for 15 days
# [6] = Case 1, rheumatoid polyarthritis, oral 600 mg/day for 3 weeks
# [7] = Case 2, ankylosing spondylarthritis, oral 600 mg/day for 3 weeks
# [8] = Case 3, psoriatic peripheral rheumatism, oral 600 mg/day for 15 days
Compound,ED50 [1] [mg/kg],minimal effective concentration (platelets) [µg/mL],LD50 [2] [mg/kg],ED30 [3] [mg/kg],ED50 [4] [mg/kg],also measured
"O=C(c1ccc2c(c1)CC(C(=O)O)C2)c1cc(Cl)c(Cl)s1 (stereo not drawn) [5-(4',5'-dichloro-2'-thenoyl)-indan-2-carboxylic acid]",30,7.5,180,42,90,
"O=C(c1ccc2c(c1)CC(C(=O)O)C2)c1ccco1 (stereo not drawn) [5-(2'-furoyl)-indan-2-carboxylic acid, 5-(2'-Furoyl)-indan-2-carboxylic acid]",11,1,1000,23,14,
"CCN(CC)CCOC(=O)C1Cc2ccc(C(=O)c3ccco3)cc2C1 (stereo not drawn) [2'-(N,N-diethylaminoethyl) 5-(2'-furoyl)-indan-2-carboxylate]",8,1,1200,18,20,
CCOC(=O)C1Cc2ccc(C(=O)c3ccc(NC(C)=O)c(Cl)c3)cc2C1 (stereo not drawn) [Ethyl 5-(4'-acetamido-3'-chlorobenzoyl)-indan-2-carboxylate],35,5,3200,60,80,
Cc1ccc(C(=O)c2ccc3c(c2)CC(C(=O)O)C3)o1 (stereo not drawn) [5-(5'-Methyl-2'-furoyl)-indan-2-carboxylic acid],8,1,2400,10,16,
"CCN(CC)CCNC(=O)C1Cc2ccc(C(=O)c3cccs3)cc2C1 (stereo not drawn) [N-[2'-(N',N'-diethylaminoethyl)]5-(2'-thenoyl)-indan-2-carboxamide]",2.5,0.25,660,8,10,
COc1ccc(C(=O)c2ccc3c(c2)CC(C(=O)O)C3)cc1 (stereo not drawn) [5-(4'-Methoxybenzoyl)-indan-2-carboxylic acid],6,2.5,650,13,34,
"CCN(CC)CCOC(=O)C1Cc2ccc(C(=O)c3cccs3)cc2C1 (stereo not drawn) [2'-(N,N-diethylaminoethyl) 5-(2'-thenoyl)-indan-2-carboxylate, hydrochloride]",4,0.25,2160,8,10,
CS(=O)(=O)c1ccc(C(=O)c2ccc3c(c2)CC(C(=O)O)C3)cc1 (stereo not drawn) [5-(p-methylsulfonylbenzoyl)-indan-2-carboxylic acid],35,1,2800,40,10,
"CCN(CC)CCNC(=O)C1Cc2ccc(C(=O)c3cc(Cl)ccc3Cl)cc2C1 (stereo not drawn) [N-[2'-(N',N'-diethylaminoethyl)]5-(2',5'-dichlorobenzoyl)-indan-2-carboxamide]",15,2.5,720,25,50,
O=C(c1ccccc1)c1ccc2c(c1)CC(C(=O)O)C2 (stereo not drawn) [5-benzoyl-indan-2-carboxylic acid],40,2.5,2100,18,40,
O=C(c1ccc2c(c1)CC(C(=O)O)C2)c1cccs1 (stereo not drawn) [5-(2'-thenoyl)-indan-2-carboxylic acid],6.5,2.5,1200,10,21,
CN(C)c1ccc(C(=O)c2ccc3c(c2)CC(C(=O)O)C3)cc1 (stereo not drawn) [5-(4'-dimethylaminobenzoyl)-indan-2-carboxylic acid],3,0.5,960,14,20,
"CCN(CC)CCNC(=O)C1Cc2ccc(C(=O)c3ccccc3)cc2C1 (stereo not drawn) [N-[2'-(N',N'-diethylaminoethyl)] 5-benzoyl-indan-2-carboxamide]",30,2.5,1100,9,25,
CN(C)S(=O)(=O)c1ccc(C(=O)c2ccc3c(c2)CC(C(=O)O)C3)cc1 (stereo not drawn) [5-(p-dimethylaminosulfonylbenzoyl)-indan-2-carboxylic acid],80,10,2600,160,> 300,
Cc1ccc(C(=O)c2ccc3c(c2)CC(C(=O)O)C3)s1 (stereo not drawn) [5-(5'-Methyl-2'-thenoyl)-indan-2-carboxylic acid],12,1,3000,7.5,14,"Tolerance ([5]; Case 1, oral 600 mg/day for 3 weeks): Very good clinical and biological tolerance; Conclusion [5, 6]: Good result; erythrocyte sedimentation rate (ESR) [5, 6]: decrease; mobility [5, 6]: Improved mobility; morning stiffness [5, 6]: Decrease; peripheral pain [5, 6]: Decrease; Conclusion [5, 7]: Good result; analgesic effect [5, 7]: Good analgesic effect; articular perimeters [5, 7]: decrease in articular perimeters; effectiveness compared with phenylbutazone [5, 7]: As effective as phenylbutazone; mobility [5, 7]: Good mobility; Tolerance ([5]; Case 2, oral 600 mg/day for 3 weeks): Good clinical and biological tolerance; Tolerance ([5]; Case 3, oral 600 mg/day for 15 days): Good clinical and biological tolerance; Conclusion [5, 8]: Very good result; articular perimeter [5, 8]: decrease in articular perimeter; local heat [5, 8]: decrease in local heat; morning pain [5, 8]: Decrease in morning pain"
"COC(=O)C1Cc2ccc(C(=O)c3ccco3)cc2C1 (stereo not drawn) [methyl 5-(2'-furoyl)-indan-2-carboxylate, Methyl 5-(2'-furoyl)-indan-2-carboxylate]",9,1,3200,13,19,
Cc1ccsc1C(=O)c1ccc2c(c1)CC(C(=O)O)C2 (stereo not drawn) [5-(3'-Methyl-2'-thenoyl)-indan-2-carboxylic acid],37,10,1200,26,25,
NS(=O)(=O)c1ccc(C(=O)c2ccc3c(c2)CC(C(=O)O)C3)cc1 (stereo not drawn) [5-(p-sulfamidobenzoyl)-indan-2-carboxylic acid],25,5,> 3200,43,90,
"O=C(c1ccoc1)c1ccc2c(c1)CC(C(=O)O)C2 (stereo not drawn) [5-(3'-furoyl)-indan-2-carboxylic acid, 5-(3'-Furoyl)-indan-2-carboxylic acid]",16,5,2400,20,18,
